Experimental data: ChEMBL document CHEMBL4507296 (2021)

Key:
[1] = target: Gastrin/cholecystokinin type B receptor (Homo sapiens) (UniProt P32239); assay: CCK2 (human) CEREP ligand profiling; conditions: Compound concentration 10.0 uM
[2] = target: Muscarinic acetylcholine receptor M3 (Homo sapiens) (UniProt P20309); assay: Muscarinic M3 (human) CEREP ligand profiling; conditions: Compound concentration 10.0 uM
[3] = tested on: Tyrosine-protein kinase ABL1 (Homo sapiens), P00519 [F317I]; conditions: Compound concentration 1000.0 nM
[4] = tested on: Tyrosine-protein kinase ABL1 (Homo sapiens), P00519 [F317L]; conditions: Compound concentration 1000.0 nM
[5] = tested on: Tyrosine-protein kinase ABL1 (Homo sapiens), P00519 [Y253F]; conditions: Compound concentration 1000.0 nM
[6] = target: Atypical kinase COQ8B, mitochondrial (Homo sapiens) (UniProt Q96D53); conditions: Compound concentration 1000.0 nM
Chain of Atypical kinase COQ8B, mitochondrial (Homo sapiens) (Q96D53 whole entry): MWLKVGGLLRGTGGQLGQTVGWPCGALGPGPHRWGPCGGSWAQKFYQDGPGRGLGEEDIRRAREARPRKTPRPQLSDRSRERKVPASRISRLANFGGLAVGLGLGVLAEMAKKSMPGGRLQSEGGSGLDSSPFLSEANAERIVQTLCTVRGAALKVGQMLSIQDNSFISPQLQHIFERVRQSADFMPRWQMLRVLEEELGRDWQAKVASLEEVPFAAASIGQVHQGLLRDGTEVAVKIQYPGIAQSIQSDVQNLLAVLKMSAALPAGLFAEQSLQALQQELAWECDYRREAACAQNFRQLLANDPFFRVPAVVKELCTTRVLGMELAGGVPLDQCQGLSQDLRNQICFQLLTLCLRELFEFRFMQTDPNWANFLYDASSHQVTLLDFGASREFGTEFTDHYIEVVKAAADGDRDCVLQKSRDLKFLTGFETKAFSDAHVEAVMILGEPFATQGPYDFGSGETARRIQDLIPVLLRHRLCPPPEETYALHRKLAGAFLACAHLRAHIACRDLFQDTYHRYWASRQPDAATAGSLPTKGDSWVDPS

[7] = target: RAC-alpha serine/threonine-protein kinase (Homo sapiens) (UniProt P31749); conditions: Compound concentration 1000.0 nM
[8] = target: ALK tyrosine kinase receptor (Homo sapiens) (UniProt Q9UM73); conditions: Compound concentration 1000.0 nM
[9] = target: Serine/threonine-protein kinase B-raf (Homo sapiens) (UniProt P15056); conditions: Compound concentration 1000.0 nM
Chain of Serine/threonine-protein kinase B-raf (Homo sapiens) (P15056 whole entry, canonical isoform): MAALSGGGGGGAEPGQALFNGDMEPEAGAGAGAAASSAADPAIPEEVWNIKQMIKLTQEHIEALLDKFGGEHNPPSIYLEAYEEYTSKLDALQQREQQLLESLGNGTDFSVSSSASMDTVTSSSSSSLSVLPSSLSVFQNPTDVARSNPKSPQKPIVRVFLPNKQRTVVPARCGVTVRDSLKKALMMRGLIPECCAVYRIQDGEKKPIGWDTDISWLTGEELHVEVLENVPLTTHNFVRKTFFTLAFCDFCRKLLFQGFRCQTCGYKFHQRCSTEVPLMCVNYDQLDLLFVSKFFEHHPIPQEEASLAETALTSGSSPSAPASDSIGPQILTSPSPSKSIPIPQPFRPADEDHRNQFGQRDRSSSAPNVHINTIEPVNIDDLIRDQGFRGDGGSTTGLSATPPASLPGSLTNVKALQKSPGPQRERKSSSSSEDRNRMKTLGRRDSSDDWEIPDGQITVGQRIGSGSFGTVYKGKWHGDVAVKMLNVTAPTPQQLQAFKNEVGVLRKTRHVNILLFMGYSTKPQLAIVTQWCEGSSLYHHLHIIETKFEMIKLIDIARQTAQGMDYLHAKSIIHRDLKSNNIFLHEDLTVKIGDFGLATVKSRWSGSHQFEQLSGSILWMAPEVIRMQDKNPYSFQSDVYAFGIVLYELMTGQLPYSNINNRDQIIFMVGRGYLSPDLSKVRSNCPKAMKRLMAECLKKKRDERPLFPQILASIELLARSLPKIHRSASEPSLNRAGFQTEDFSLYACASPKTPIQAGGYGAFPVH

[10] = target: Casein kinase I isoform epsilon (Homo sapiens) (UniProt P49674); conditions: Compound concentration 1000.0 nM
[11] = target: Death-associated protein kinase 3 (Homo sapiens) (UniProt O43293); conditions: Compound concentration 1000.0 nM
[12] = target: Serine/threonine-protein kinase DCLK1 (Homo sapiens) (UniProt O15075); conditions: Compound concentration 1000.0 nM
[13] = target: Discoidin domain-containing receptor 2 (Homo sapiens) (UniProt Q16832); conditions: Compound concentration 1000.0 nM
[14] = target: Dual specificity tyrosine-phosphorylation-regulated kinase 2 (Homo sapiens) (UniProt Q92630); conditions: Compound concentration 1000.0 nM
[15] = tested on: Epidermal growth factor receptor (Homo sapiens), P00533 [L858R]; conditions: Compound concentration 1000.0 nM
[16] = target: Ephrin type-A receptor 7 (Homo sapiens) (UniProt Q15375); conditions: Compound concentration 1000.0 nM
[17] = target: Ephrin type-B receptor 6 (Homo sapiens) (UniProt O15197); conditions: Compound concentration 1000.0 nM
[18] = target: Mitogen-activated protein kinase 6 (Homo sapiens) (UniProt Q16659); conditions: Compound concentration 1000.0 nM
[19] = target: Fibroblast growth factor receptor 1 (Homo sapiens) (UniProt P11362); conditions: Compound concentration 1000.0 nM
[20] = tested on: Receptor-type tyrosine-protein kinase FLT3 (Homo sapiens), P36888 [UNDEFINED MUTATION]; conditions: Compound concentration 1000.0 nM
[21] = target: Mitogen-activated protein kinase kinase kinase kinase 1 (Homo sapiens) (UniProt Q92918); conditions: Compound concentration 1000.0 nM
[22] = target: Interleukin-1 receptor-associated kinase 3 (Homo sapiens) (UniProt Q9Y616); conditions: Compound concentration 1000.0 nM
[23] = target: Tyrosine-protein kinase JAK1 (Homo sapiens) (UniProt P23458); conditions: Compound concentration 1000.0 nM
[24] = target: Tyrosine-protein kinase JAK3 (Homo sapiens) (UniProt P52333); conditions: Compound concentration 1000.0 nM
[25] = target: Mitogen-activated protein kinase kinase kinase kinase 4 (Homo sapiens) (UniProt O95819); conditions: Compound concentration 1000.0 nM
Chain of Mitogen-activated protein kinase kinase kinase kinase 4 (Homo sapiens) (O95819 2-1239 limits assumed): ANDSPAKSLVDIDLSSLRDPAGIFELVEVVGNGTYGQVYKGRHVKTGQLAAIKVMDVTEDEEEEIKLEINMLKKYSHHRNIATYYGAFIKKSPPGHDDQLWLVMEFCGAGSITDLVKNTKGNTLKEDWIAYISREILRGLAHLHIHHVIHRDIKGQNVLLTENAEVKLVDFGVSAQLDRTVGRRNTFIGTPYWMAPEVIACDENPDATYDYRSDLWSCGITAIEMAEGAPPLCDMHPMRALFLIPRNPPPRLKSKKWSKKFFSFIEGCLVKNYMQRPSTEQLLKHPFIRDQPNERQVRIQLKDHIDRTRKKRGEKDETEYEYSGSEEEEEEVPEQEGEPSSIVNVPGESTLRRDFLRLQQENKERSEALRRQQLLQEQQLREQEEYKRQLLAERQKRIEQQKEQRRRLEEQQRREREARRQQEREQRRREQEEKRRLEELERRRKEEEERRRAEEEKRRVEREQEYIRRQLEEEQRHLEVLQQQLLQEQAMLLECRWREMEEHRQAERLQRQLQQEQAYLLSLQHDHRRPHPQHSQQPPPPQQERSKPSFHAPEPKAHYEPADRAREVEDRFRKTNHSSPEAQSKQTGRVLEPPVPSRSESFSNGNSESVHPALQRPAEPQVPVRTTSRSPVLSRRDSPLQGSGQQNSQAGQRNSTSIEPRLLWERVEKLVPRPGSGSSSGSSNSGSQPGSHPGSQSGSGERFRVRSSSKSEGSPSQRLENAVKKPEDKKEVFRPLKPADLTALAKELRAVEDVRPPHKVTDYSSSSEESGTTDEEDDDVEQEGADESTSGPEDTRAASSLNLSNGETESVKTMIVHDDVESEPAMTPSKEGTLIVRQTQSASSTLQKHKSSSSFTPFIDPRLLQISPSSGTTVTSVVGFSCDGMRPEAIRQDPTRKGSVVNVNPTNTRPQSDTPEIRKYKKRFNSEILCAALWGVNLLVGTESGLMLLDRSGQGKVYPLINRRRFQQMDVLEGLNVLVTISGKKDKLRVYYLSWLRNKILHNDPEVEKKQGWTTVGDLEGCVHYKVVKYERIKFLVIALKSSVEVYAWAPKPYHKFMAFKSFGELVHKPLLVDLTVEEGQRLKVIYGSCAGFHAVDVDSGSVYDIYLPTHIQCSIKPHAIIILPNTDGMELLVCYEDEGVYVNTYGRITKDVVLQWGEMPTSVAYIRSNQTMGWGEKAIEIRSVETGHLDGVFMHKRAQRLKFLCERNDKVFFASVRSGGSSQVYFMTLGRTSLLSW

[26] = target: Dual specificity mitogen-activated protein kinase kinase 5 (Homo sapiens) (UniProt Q13163); conditions: Compound concentration 1000.0 nM
[27] = target: Maternal embryonic leucine zipper kinase (Homo sapiens) (UniProt Q14680); conditions: Compound concentration 1000.0 nM
[28] = target: Hepatocyte growth factor receptor (Homo sapiens) (UniProt P08581); conditions: Compound concentration 1000.0 nM
Chain of Hepatocyte growth factor receptor (Homo sapiens) (P08581 whole entry): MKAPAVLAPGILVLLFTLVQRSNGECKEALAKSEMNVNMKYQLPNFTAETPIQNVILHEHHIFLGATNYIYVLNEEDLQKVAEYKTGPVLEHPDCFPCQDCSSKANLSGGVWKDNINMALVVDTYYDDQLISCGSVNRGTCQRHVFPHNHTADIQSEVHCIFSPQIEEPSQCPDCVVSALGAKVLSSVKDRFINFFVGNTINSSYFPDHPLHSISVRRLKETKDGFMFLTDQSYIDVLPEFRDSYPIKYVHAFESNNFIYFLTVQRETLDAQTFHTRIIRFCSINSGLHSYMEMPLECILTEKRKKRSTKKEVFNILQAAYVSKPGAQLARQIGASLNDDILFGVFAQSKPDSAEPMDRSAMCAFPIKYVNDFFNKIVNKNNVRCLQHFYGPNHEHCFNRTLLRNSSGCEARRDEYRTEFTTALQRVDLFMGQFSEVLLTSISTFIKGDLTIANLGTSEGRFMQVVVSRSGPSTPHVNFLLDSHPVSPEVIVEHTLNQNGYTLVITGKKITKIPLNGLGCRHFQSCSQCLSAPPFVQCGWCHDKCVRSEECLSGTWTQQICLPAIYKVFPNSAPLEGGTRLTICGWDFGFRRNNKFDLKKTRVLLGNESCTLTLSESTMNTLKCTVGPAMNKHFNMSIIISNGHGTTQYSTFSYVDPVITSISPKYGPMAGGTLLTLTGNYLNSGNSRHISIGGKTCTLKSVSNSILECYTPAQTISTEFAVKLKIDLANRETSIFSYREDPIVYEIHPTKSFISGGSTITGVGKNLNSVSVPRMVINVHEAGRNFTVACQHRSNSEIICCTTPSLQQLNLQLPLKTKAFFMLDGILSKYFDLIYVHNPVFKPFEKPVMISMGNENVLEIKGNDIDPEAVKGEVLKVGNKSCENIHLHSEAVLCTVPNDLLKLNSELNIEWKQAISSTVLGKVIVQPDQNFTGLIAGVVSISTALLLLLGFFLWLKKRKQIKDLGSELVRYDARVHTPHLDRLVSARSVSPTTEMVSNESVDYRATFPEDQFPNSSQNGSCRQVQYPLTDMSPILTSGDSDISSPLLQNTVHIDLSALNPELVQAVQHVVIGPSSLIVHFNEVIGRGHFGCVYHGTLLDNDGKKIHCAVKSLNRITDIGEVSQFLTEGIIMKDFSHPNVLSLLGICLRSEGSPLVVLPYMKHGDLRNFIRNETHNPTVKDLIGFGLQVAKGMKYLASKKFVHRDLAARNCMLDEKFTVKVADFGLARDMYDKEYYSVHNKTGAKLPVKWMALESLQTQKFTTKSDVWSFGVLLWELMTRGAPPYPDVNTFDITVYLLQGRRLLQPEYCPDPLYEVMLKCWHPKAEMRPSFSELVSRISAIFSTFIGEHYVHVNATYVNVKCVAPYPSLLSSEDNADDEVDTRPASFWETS

[29] = target: Mitogen-activated protein kinase kinase kinase 9 (Homo sapiens) (UniProt P80192); conditions: Compound concentration 1000.0 nM
[30] = target: Mitogen-activated protein kinase kinase kinase 10 (Homo sapiens) (UniProt Q02779); conditions: Compound concentration 1000.0 nM
[31] = target: Macrophage-stimulating protein receptor (Homo sapiens) (UniProt Q04912); conditions: Compound concentration 1000.0 nM
[32] = target: Muscle, skeletal receptor tyrosine-protein kinase (Homo sapiens) (UniProt O15146); conditions: Compound concentration 1000.0 nM
[33] = target: Serine/threonine-protein kinase Nek4 (Homo sapiens) (UniProt P51957); conditions: Compound concentration 1000.0 nM
[34] = target: Mitogen-activated protein kinase 13 (Homo sapiens) (UniProt O15264); conditions: Compound concentration 1000.0 nM
[35] = target: Phosphorylase b kinase gamma catalytic chain, skeletal muscle/heart isoform (Homo sapiens) (UniProt Q16816); conditions: Compound concentration 1000.0 nM
Chain of Phosphorylase b kinase gamma catalytic chain, skeletal muscle/heart isoform (Homo sapiens) (Q16816 whole entry, looked up, canonical isoform): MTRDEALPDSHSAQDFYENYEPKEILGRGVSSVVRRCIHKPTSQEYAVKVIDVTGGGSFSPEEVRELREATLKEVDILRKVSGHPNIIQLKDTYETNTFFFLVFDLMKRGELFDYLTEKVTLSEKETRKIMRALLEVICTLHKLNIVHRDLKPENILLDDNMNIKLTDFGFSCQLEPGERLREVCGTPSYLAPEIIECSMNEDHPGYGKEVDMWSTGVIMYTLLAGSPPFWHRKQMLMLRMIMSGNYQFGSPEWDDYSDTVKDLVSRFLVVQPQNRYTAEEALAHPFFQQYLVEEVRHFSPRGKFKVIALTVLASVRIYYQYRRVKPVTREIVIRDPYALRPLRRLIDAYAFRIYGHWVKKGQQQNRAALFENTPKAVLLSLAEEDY

[36] = target: Protein kinase C iota type (Homo sapiens) (UniProt P41743); conditions: Compound concentration 1000.0 nM
[37] = target: Serine/threonine-protein kinase RIO2 (Homo sapiens) (UniProt Q9BVS4); conditions: Compound concentration 1000.0 nM
[38] = target: Ribosomal protein S6 kinase alpha-6 (Homo sapiens) (UniProt Q9UK32); conditions: Compound concentration 1000.0 nM
[39] = target: Tyrosine-protein kinase Srms (Homo sapiens) (UniProt Q9H3Y6); conditions: Compound concentration 1000.0 nM
Chain of Tyrosine-protein kinase Srms (Homo sapiens) (Q9H3Y6 whole entry): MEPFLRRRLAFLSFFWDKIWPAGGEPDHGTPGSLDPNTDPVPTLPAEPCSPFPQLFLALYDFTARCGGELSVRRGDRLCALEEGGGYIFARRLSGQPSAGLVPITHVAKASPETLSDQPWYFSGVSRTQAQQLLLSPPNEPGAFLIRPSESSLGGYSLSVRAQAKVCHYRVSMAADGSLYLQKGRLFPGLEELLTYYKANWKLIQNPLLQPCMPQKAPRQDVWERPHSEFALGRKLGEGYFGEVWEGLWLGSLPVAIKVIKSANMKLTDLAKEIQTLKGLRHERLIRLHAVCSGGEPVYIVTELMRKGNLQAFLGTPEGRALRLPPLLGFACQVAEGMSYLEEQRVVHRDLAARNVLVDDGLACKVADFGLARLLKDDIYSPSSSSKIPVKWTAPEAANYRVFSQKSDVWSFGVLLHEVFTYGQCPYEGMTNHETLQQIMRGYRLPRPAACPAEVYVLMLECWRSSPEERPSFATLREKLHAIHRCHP

[40] = target: Angiopoietin-1 receptor (Homo sapiens) (UniProt Q02763); conditions: Compound concentration 1000.0 nM
[41] = target: Serine/threonine-protein kinase tousled-like 2 (Homo sapiens) (UniProt Q86UE8); conditions: Compound concentration 1000.0 nM
[42] = target: Serine/threonine-protein kinase ULK3 (Homo sapiens) (UniProt Q6PHR2); conditions: Compound concentration 1000.0 nM
[43] = target: Tyrosine-protein kinase ZAP-70 (Homo sapiens) (UniProt P43403); conditions: Compound concentration 1000.0 nM
[44] = target: 5-hydroxytryptamine receptor 1D (Homo sapiens) (UniProt P28221); conditions: Compound concentration 10.0 uM
[45] = target: 5-hydroxytryptamine receptor 3A (Homo sapiens) (UniProt P46098); conditions: Compound concentration 10.0 uM
[46] = target: Mu-type opioid receptor (Homo sapiens) (UniProt P35372); conditions: Compound concentration 10.0 uM

C[C@H](c1ccc(F)cc1)N(Cc1cccc(C(=O)O)c1)C(=O)c1cnc2ccccc2c1 [PF-05105679]
inactive: inhibition [1] 35% | inhibition [2] 21% | residual activity [3] 100% | residual activity [4] 91% | residual activity [5] 100% | residual activity [6] 86% | residual activity [7] 100% | residual activity [8] 94% | residual activity [9] 90% | residual activity [10] 100% | residual activity [11] 100% | residual activity [12] 100% | residual activity [13] 96% | residual activity [14] 85% | residual activity [15] 100% | residual activity [16] 80% | residual activity [17] 88% | residual activity [18] 100% | residual activity [19] 100% | residual activity [20] 99% | residual activity [21] 100% | residual activity [22] 100% | residual activity [23] 100% | residual activity [24] 100% | residual activity [25] 96% | residual activity [26] 92% | residual activity [27] 100% | residual activity [28] 100% | residual activity [29] 100% | residual activity [30] 100% | residual activity [31] 100% | residual activity [32] 76% | residual activity [33] 100% | residual activity [34] 95% | residual activity [35] 88% | residual activity [36] 100% | residual activity [37] 80% | residual activity [38] 100% | residual activity [39] 100% | residual activity [40] 98% | residual activity [41] 97% | residual activity [42] 82% | residual activity [43] 96% | inhibition [44] -1.68% | inhibition [45] -1.19% | inhibition [46] 1.23%
